Results: ChEMBL document CHEMBL1201862, “PubChem BioAssay data set” (2004)
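All cell lines were grown in 96-well plates and treated with compound for 48 hours. GI50 is the concentration that inhibits growth by half.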 The source made the active and inactive calls. Rule as the data show it: active = GI50 up to about 1.1 µM and inactive = higher.

Key:
Test in all cases: inhibition of tumour cell growth, NCI panel, 48 h
786-0 = test system: 786-0
A498 = test system: A498
A549 = test system: A549
ACHN = test system: ACHN
CAKI-1 = test system: CAKI-1
CCRF-CEM = test system: CCRF-CEM
COLO 205 = test system: COLO 205
DLD-1 = test system: DLD-1
DMS-114 = test system: DMS-114
EKVX = test system: EKVX
HCC 2998 = test system: HCC 2998
HCT-116 = test system: HCT-116
HCT-15 = test system: HCT-15
HL-60 = test system: HL-60
HOP-18 = test system: HOP-18
HOP-62 = test system: HOP-62
HOP-92 = test system: HOP-92
HT-29 = test system: HT-29
IGROV-1 = test system: IGROV-1
K562 = test system: K562
KM12 = test system: KM12
LOX IMVI = test system: LOX IMVI
LXFL 529 = test system: LXFL 529
M14 = test system: M14
MOLT-4 = test system: MOLT-4
Malme-3M = test system: Malme-3M
NCI-H226 = test system: NCI-H226
NCI-H23 = test system: NCI-H23
NCI-H460 = test system: NCI-H460
NCI-H522 = test system: NCI-H522
OVCAR-4 = test system: OVCAR-4
OVCAR-5 = test system: OVCAR-5
OVCAR-8 = test system: OVCAR-8
RPMI-8226 = test system: RPMI-8226
RXF 631 = test system: RXF 631
SF-268 = test system: SF-268
SF-295 = test system: SF-295
SF-539 = test system: SF-539
SK-MEL-28 = test system: SK-MEL-28
SK-MEL-2 = test system: SK-MEL-2
SK-MEL-5 = test system: SK-MEL-5
SK-OV-3 = test system: SK-OV-3
SN12C = test system: SN12C
SNB-75 = test system: SNB-75
SNB-78 = test system: SNB-78
SR = test system: SR
SW-620 = test system: SW-620
TK-10 = test system: TK-10
U-251 = test system: U-251
UACC-257 = test system: UACC-257
UACC-62 = test system: UACC-62
UO-31 = test system: UO-31
XF498 = test system: XF498
DMS-273 = test system: DMS-273
KM-20L2 = test system: KM-20L2
M19-MEL = test system: M19-MEL
OVCAR-3 = test system: OVCAR-3
RXF 393 = test system: RXF 393
SNB-19 = test system: SNB-19

Measured: GI50

CCOC(=O)/C(=C/c1ccc(C(F)(F)F)cc1)N(CC)CC
40.6 µM: HCT-15
inactive: 786-0 > 100 µM | A498 > 100 µM | A549 38.8 µM | ACHN 42.1 µM | CAKI-1 58.6 µM | CCRF-CEM > 100 µM | COLO 205 > 100 µM | DLD-1 54.1 µM | DMS-114 30.8 µM | EKVX > 100 µM | HCC 2998 > 100 µM | HCT-116 40 µM | HL-60 > 100 µM | HOP-18 12.5 µM | HOP-62 42.6 µM | HOP-92 17.5 µM | HT-29 > 100 µM | IGROV-1 47.8 µM | K562 > 100 µM | KM12 44.4 µM | LOX IMVI > 100 µM | LXFL 529 51.6 µM | M14 > 100 µM | MOLT-4 96.4 µM | Malme-3M 57.5 µM | NCI-H226 48.4 µM | NCI-H23 37.3 µM | NCI-H460 > 100 µM | NCI-H522 31.6 µM | OVCAR-4 78.9 µM | OVCAR-5 87.1 µM | OVCAR-8 56 µM | RPMI-8226 > 100 µM | RXF 631 > 100 µM | SF-268 72.3 µM | SF-295 84.7 µM | SF-539 > 100 µM | SK-MEL-28 > 100 µM | SK-MEL-2 25.7 µM | SK-MEL-5 32.7 µM | SK-OV-3 66.4 µM | SN12C 53.3 µM | SNB-75 > 100 µM | SNB-78 81.8 µM | SR > 100 µM | SW-620 84.1 µM | TK-10 > 100 µM | U-251 41 µM | UACC-257 66.8 µM | UACC-62 35.4 µM | UO-31 46.1 µM | XF498 58.1 µM

c1ccc(CNc2ccc3[nH]c4cnccc4c3c2)cc1
inactive: 786-0 15.3 µM | A498 15 µM | A549 17.9 µM | ACHN 15.1 µM | CAKI-1 16.2 µM | CCRF-CEM 16.9 µM | COLO 205 15.9 µM | DLD-1 16.6 µM | DMS-114 14.8 µM | DMS-273 19.8 µM | EKVX 19 µM | HCC 2998 18.1 µM | HCT-116 17.5 µM | HL-60 11 µM | HOP-62 17.2 µM | HOP-92 15.6 µM | HT-29 17.7 µM | IGROV-1 16.8 µM | K562 14.3 µM | KM-20L2 16.2 µM | KM12 17.3 µM | LOX IMVI 17.8 µM | LXFL 529 16.6 µM | M14 18 µM | M19-MEL 18.7 µM | MOLT-4 14 µM | Malme-3M 16.9 µM | NCI-H226 19.1 µM | NCI-H23 15.1 µM | NCI-H460 17.9 µM | NCI-H522 14 µM | OVCAR-3 14 µM | OVCAR-4 14.4 µM | OVCAR-5 16.8 µM | OVCAR-8 17.5 µM | RPMI-8226 16.4 µM | RXF 393 13.6 µM | RXF 631 20.6 µM | SF-268 16.4 µM | SF-295 18.5 µM | SF-539 18.1 µM | SK-MEL-28 13.6 µM | SK-MEL-2 17.7 µM | SK-MEL-5 15.2 µM | SK-OV-3 18.8 µM | SN12C 16.9 µM | SNB-19 16 µM | SNB-75 6.89 µM | SNB-78 20.9 µM | SW-620 19.9 µM | TK-10 20 µM | U-251 15.9 µM | UACC-257 17.4 µM | UACC-62 17.6 µM | UO-31 15.5 µM | XF498 19.4 µM
19.4 µM: HCT-15
